{"source": "patent US20150141439A1", "about": "“PHARMACEUTICAL COMPOSITION FOR THE PREVENTION OR TREATMENT OF BRAIN TUMOR OR TEMODAL RESISTANT GLIOBLASTOMA MULTIFORM COMPRISING AZATHIOPRINE AS AN ACTIVE INGREDIENT” (KOREA RESEARCH INSTITUTE OF CHEMICAL TECHNOLOGY, priority 2012, published 2015)", "key": {"[1]": {"system": "glioblastoma multiform cell line (U87MG)", "assay": "cells", "procedure": "(§1) Particularly, the cell growth inhibition effect was measured by WST-1 cell proliferation assay [http://www.roche-applied-science.com/PROD_INF/MANUALS/CELL_MAN/apoptosis—087—088.pdf]. The compound of formula 1 was loaded in a 384-well cell culture plate. Three types of glioblastoma multiform cell lines [proneural subtype (559T), mesenchymal subtype (592T), and classical subtype (626T)], normal human astrocytes (NHA), a lung cancer cell line (A549), and a glioblastoma multiform cell line (U87MG) were distributed in the plate at the density of 4.5×10^3 cells/well, and the medium was filled up to make 50 μl per well. At this time, the concentration of the solvent DMSO for the compound of formula 1 was no more than 0.2%. After culturing the cells for 72 hours, 5 mg/ml of WST-1 reagent was added by 5 μl per well, followed by reaction for 3˜4 hours. Then OD450 was measured to investigate the effect of the compound of formula 1 on cell proliferation."}, "[2]": {"system": "lung cancer cell line (A549)", "assay": "cells", "details": "Homo sapiens, A549, 72 h", "procedure": "as §1"}, "[3]": {"system": "mesenchymal subtype glioblastoma multiform (592T)", "assay": "cells", "details": "Homo sapiens, 72 h", "procedure": "as §1"}, "[4]": {"system": "GBM #2 glioblastoma multiform patient originated cells", "assay": "Neurosphere formation inhibition, GBM #2", "assay_type": "cell-based, human", "set-up": "key: S: strong effect; I: intermediate effect; R: rare effect", "details": "GBM #2, type A (proneural), Azathioprine 1 μM, duration 15 day", "procedure": "(§2) Particularly, to investigate neurosphere formation, glioblastoma multiform cells were cultured for a certain time and the cells were distributed again in culture vessels, followed by additional culture. Then, the number of newly generated neurospheres was measured. First, the glioblastoma multiform patient originated cells were sub-cultured, which were distributed in a 96-well plate (20, 50, and 200 cells in 50 μl of culture medium/well). […] Then, the compound of formula 1 (azathioprine) and the compound of Comparative Example 1 (Temodal) were added to 50 μl of cell culture medium with the same concentrations as the above once a week, which were then cultured for 7˜23 days. When neurosphere was formed at least 50 μm in the control group not treated with the compound, the number of neurospheres in each well was counted to compare the neurosphere formation before and after the treatment of the compound of formula 1 (azathioprine) and the compound of Comparative Example 1 (Temodal).\n(§3) The glioblastoma multiform cells used in this experiment were classified into 4 types, which are type A, type B, type C, and type D, according to the gene expression pattern. Methylation of MGMT (O6-me-G methyltransferase), the DNA repair protein, was confirmed in each cell line. […]"}, "[5]": {"system": "GBM #3 glioblastoma multiform patient originated cells", "assay": "Neurosphere formation inhibition, GBM #3", "assay_type": "cell-based, human", "set-up": "key: S: strong effect; I: intermediate effect; R: rare effect", "details": "GBM #3, type A (proneural), Azathioprine 1 μM, duration 21 day", "procedure": "as §2, §3"}, "[6]": {"system": "GBM #4 glioblastoma multiform patient originated cells", "assay": "Neurosphere formation inhibition, GBM #4", "assay_type": "cell-based, human", "set-up": "key: S: strong effect; I: intermediate effect; R: rare effect", "details": "GBM #4, type B (classical), Azathioprine 1 μM, duration 9 day", "procedure": "as §2, §3"}, "[7]": {"system": "GBM #5 glioblastoma multiform patient originated cells", "assay": "Neurosphere formation inhibition, GBM #5", "assay_type": "cell-based, human", "set-up": "key: S: strong effect; I: intermediate effect; R: rare effect", "details": "GBM #5, type B (classical), Azathioprine 1 μM, duration 21 day", "procedure": "as §2, §3"}, "[8]": {"system": "GBM #9 glioblastoma multiform patient originated cells", "assay": "Neurosphere formation inhibition, GBM #9", "assay_type": "cell-based, human", "set-up": "key: S: strong effect; I: intermediate effect; R: rare effect", "details": "GBM #9, type D (non-classified), Azathioprine 1 μM, duration 21 day", "procedure": "as §2, §3"}, "[9]": {"system": "GBM #10 glioblastoma multiform patient originated cells", "assay": "Neurosphere formation inhibition, GBM #10", "assay_type": "cell-based, human", "set-up": "key: S: strong effect; I: intermediate effect; R: rare effect", "details": "GBM #10, type D (non-classified), Azathioprine 1 μM, duration 10 day", "procedure": "as §2, §3"}, "[10]": {"system": "U2932 Human DLBCL (Diffuse large B-cell lymphoma)", "assay": "Secondary cytotoxicity test, U2932", "assay_type": "cell-based", "procedure": "as §1\n(§4) To investigate the cell growth inhibition effect of the compound of formula 1 of the present invention (azathioprine) in many different cell lines, secondary cytotoxicity test was performed with the cell lines listed in Table 5 by the same manner as described in Example 1."}, "[11]": {"system": "HCT-116 Human colorectal carcinoma", "assay": "Secondary cytotoxicity test, HCT-116", "assay_type": "cell-based", "procedure": "as §1, §4"}, "[12]": {"system": "classical subtype (626T) glioblastoma multiform cells", "details": "concentrations starting from 100 μM, culture for 7 days", "procedure": "(§5) Thymidine incorporation assay was performed to investigate the cell growth inhibition effect of the compound of the present invention. Three subtypes of glioblastoma multiform cells [proneural subtype (559T), mesenchymal subtype (592T), classical subtype (626T)] and normal human astrocytes (NHA) were N cultured in a 96-well plate at the density of 1×10^4 cells/well, to which 2 μCi/well of 3H-thymidine was added. Azathioprine was added thereto at different concentrations starting from 100 μM, followed by culture for 7 days. 200 μl/well of scintillation fluid (biofluor) was added thereto and count per minute (cpm) was calculated."}, "[13]": {"system": "mesenchymal subtype (592T) glioblastoma multiform cells", "details": "concentrations starting from 100 μM, culture for 7 days", "procedure": "as §5"}, "[14]": {"system": "proneural subtype (559T) glioblastoma multiform cells", "details": "concentrations starting from 100 μM, culture for 7 days", "procedure": "as §5"}, "[15]": {"system": "normal human astrocytes (NHA)", "details": "azathioprine 10 μM, 24 hours later, before and after the treatment"}, "[16]": {"details": "Homo sapiens, U-87 MG, 72 h, read-out: Cell Growth Inhibition (% Inhibition)"}, "[17]": {"details": "read-out: Cell Growth Inhibition (% Inhibition)"}}}
{"smiles": "Cn1cnc([N+](=O)[O-])c1Sc1ncnc2nc[nH]c12", "note": "[Azathioprine, 6-(1-methyl-4-nitro-1H-imidazol-5-ylthio)-7H-purine]", "values": [{"measurement": "GI50", "setting": "[1]; Homo sapiens, U-87 MG, 72 h", "result": "> 10", "unit": "µM"}, {"measurement": "inhibition at 0.032 µM", "setting": "[1]; [16]", "result": 3.2, "unit": "%"}, {"measurement": "inhibition at 0.1 µM", "setting": "[1]; [16]", "result": -9.9, "unit": "%"}, {"measurement": "inhibition at 0.32 µM", "setting": "[1]; [16]", "result": 10.5, "unit": "%"}, {"measurement": "inhibition at 1 µM", "setting": "[1]; [16]", "result": 6.5, "unit": "%"}, {"measurement": "inhibition at 3.2 µM", "setting": "[1]; [16]", "result": 3.2, "unit": "%"}, {"measurement": "inhibition at 10 µM", "setting": "[1]; [16]", "result": -12.7, "unit": "%"}, {"measurement": "cancer cell growth inhibition", "setting": "[1]; U87MG, WST-1, up to 10 μM", "result": "did not inhibit the cancer cell growth"}, {"measurement": "GI50", "setting": "[2]", "result": "> 10", "unit": "µM"}, {"measurement": "inhibition at 0.032 µM", "setting": "[2]; [17]", "result": 6.7, "unit": "%"}, {"measurement": "inhibition at 0.1 µM", "setting": "[2]; [17]", "result": 15.3, "unit": "%"}, {"measurement": "inhibition at 0.32 µM", "setting": "[2]; [17]", "result": 21.5, "unit": "%"}, {"measurement": "inhibition at 1 µM", "setting": "[2]; [17]", "result": 24.2, "unit": "%"}, {"measurement": "inhibition at 3.2 µM", "setting": "[2]; [17]", "result": 26, "unit": "%"}, {"measurement": "inhibition at 10 µM", "setting": "[2]; [17]", "result": 32, "unit": "%"}, {"measurement": "GI50", "setting": "[3]", "result": 5.5, "unit": "µM"}, {"measurement": "inhibition at 0.032 µM", "setting": "[3]; [17]", "result": -3.9, "unit": "%"}, {"measurement": "inhibition at 0.1 µM", "setting": "[3]; [17]", "result": 2.1, "unit": "%"}, {"measurement": "inhibition at 0.32 µM", "setting": "[3]; [17]", "result": 8.3, "unit": "%"}, {"measurement": "inhibition at 1 µM", "setting": "[3]; [17]", "result": 22.6, "unit": "%"}, {"measurement": "inhibition at 3.2 µM", "setting": "[3]; [17]", "result": 46, "unit": "%"}, {"measurement": "inhibition at 10 µM", "setting": "[3]; [17]", "result": 57.2, "unit": "%"}, {"measurement": "inhibition of neurosphere formation", "setting": "[4]", "result": "S"}, {"measurement": "inhibition of neurosphere formation", "setting": "[5]", "result": "S"}, {"measurement": "inhibition of neurosphere formation", "setting": "[6]", "result": "S"}, {"measurement": "inhibition of neurosphere formation", "setting": "[7]", "result": "S"}, {"measurement": "inhibition of neurosphere formation", "setting": "[8]", "result": "S"}, {"measurement": "inhibition of neurosphere formation", "setting": "[9]", "result": "S"}, {"measurement": "IC50", "setting": "[10]", "result": 4.2, "unit": "µM"}, {"measurement": "IC50", "setting": "[11]", "result": 5.5, "unit": "µM"}, {"measurement": "cell growth inhibition effect (3H-thymidine incorporation)", "setting": "[12]", "result": "significant cell growth inhibition effect"}, {"measurement": "cell growth inhibition effect (3H-thymidine incorporation)", "setting": "[13]", "result": "significant cell growth inhibition effect"}, {"measurement": "cell growth inhibition effect (3H-thymidine incorporation)", "setting": "[14]", "result": "significant cell growth inhibition effect"}, {"measurement": "concentrations of azathioprine metabolites (TGMP, MeTIMP, MeTGMP, TIMP) in cell lysate", "setting": "[15]", "result": "not much changed"}]}
